Source: patent publication US7256180B2 (priority 2000, dated 2007)
Read-outs that look alike come from different tables or passages of the source. {C11P} = undecylphosphate group; {Acr} = acridine group

Experiments:
[1] = test system: HSV-1 virus (strain L2); type: cell-based, Herpes Simplex Virus 1; conditions: Vero cells, 24 hours
[2] = test system: HSV-1; type: cell-based, Herpes Simplex Virus 1; conditions: BHK cells, oligonucleotide 3.0 μM
[3] = test system: HSV-1 (strain CI); type: in vivo, mice

Substance: Free Anti-Influenza: AGCAAAAGCAGG, equivalently modified control (5' {C11P}, 3' {Acr}, sugars by position and backbone not given here)
- HSV-1 Infectious Titre (CPE50/ml) (n = 7) ([1]; oligo conc. 0.2 μM): 1.1 (±0.4) × 10^6 CPE50/ml
- HSV-1 Infectious Titre (CPE50/ml) (n = 7) ([1]; oligo conc. 1.0 μM): 0.9 (±0.2) × 10^6 CPE50/ml
- HSV-1 Infectious Titre (CPE50/ml) (n = 7) ([1]; oligo conc. 5.0 μM): 0.6 (±0.3) × 10^6 CPE50/ml
- HSV-1 Infectious Titre (CPE50/ml) (n = 7) [2]: 9 (±2) × 10^3 CPE50/ml
- Animals Survived/No. of Animals in group, Exp. 1 ([3]; mouse, in vivo, iv): 0/9
- Animals Survived/No. of Animals in group, Exp. 2 ([3]; mouse, in vivo, iv): 1/10
- Animals Survived/No. of Animals in group, Exp. 3 ([3]; mouse, in vivo, iv): 0/10
- % Survival ([3]; over Exp. 1-3): 7.0%
